# Reference: article PMC4887995, “Small molecule dual-inhibitors of TRPV4 and TRPA1 for attenuation of inflammation and pain” (Scientific Reports, 2016)
# Entries after “also recorded” stand apart in the source; their conditions may differ.
# Legend:
# TRPV4 [1] = target: T1, TRPV4 (Rattus norvegicus, UniProt Q9ERZ8); assay: Patch-clamp recording of TRPV4-mediated currents in TRPV4-GFP+ N2a cells; format: cell-based; parameters: expressed in transfected cells; host or cells: N2a (mouse neuroblastoma) cells; conditions: 5 μM, 5 min pre-incubation, GSK101 5 nM, current densities at −100mV/+100 mV
# T1 sequence (Q9ERZ8 whole entry): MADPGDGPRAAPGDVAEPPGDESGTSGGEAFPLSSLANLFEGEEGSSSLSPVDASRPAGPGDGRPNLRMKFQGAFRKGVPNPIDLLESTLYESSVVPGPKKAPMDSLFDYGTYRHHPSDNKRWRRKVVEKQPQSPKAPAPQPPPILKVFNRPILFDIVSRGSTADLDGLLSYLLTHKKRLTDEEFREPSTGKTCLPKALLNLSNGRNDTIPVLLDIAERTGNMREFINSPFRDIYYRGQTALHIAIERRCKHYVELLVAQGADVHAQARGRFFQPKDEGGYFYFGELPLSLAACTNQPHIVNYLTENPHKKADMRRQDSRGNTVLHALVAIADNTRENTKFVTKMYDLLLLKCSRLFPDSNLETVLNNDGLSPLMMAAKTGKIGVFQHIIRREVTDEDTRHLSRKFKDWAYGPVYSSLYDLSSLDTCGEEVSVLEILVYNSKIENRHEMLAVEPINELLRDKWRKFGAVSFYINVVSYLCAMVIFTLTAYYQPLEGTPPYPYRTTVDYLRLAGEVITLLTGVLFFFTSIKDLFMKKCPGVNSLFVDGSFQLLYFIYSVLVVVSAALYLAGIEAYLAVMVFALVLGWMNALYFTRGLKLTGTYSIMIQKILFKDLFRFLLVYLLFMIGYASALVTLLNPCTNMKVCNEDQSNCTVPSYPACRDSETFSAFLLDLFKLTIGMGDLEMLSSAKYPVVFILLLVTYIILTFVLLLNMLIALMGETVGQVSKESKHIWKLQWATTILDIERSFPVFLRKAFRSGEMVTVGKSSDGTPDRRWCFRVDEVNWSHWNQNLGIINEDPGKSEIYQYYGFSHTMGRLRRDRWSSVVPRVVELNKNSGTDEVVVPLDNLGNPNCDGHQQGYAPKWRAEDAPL
# Method: Figure 3 TRPV4 channel inhibition by compounds 16-8 and 16-19 – patch-clamp e-phys. (A) Current-voltage relationship of TRPV4-mediated currents after activation with 5 nM GSK101. Recordings were performed in TRPV4-GFP+ N2a cells. The representative traces represent an average of ≈12 sweeps. In all experiments, cells were pre-incubated with the respective compound (5 μM) for 5 minutes.
# Heterologously transfected N2a cells were subjected to patch clamp electrophysiological recordings. Briefly, 24 h after transfection cells were prewashed with extracellular fluid (ECF) which contained (in mM) 1 MgCl2, 10 Glucose, 10 HEPES, 145 NaCl and 2 CaCl2 (pH 7.4, 310mOsM). Cells were then incubated with or without TRPV4 inhibitors in ECF for 5 min before whole cell recording. Cover slips were transferred to a recording chamber mounted on the stage of a Leica inverted microscope that was equipped with fluorescent filters. Transfected cells were identified before patching by their green florescent color. Cells were patched with a 2.5–3.0 MΩ glass electrode pulled from borosilicate glass capillaries using pipette puller (Sutter instruments). […] Whole cell currents were recorded using pclamp 9.2 software and Axopatch 200B amplifier (Molecular Devices). […] Capacitance was monitored throughout the experimental recordings. […]
# [2] = Stability of compound in plasma; format: in vitro ADME; conditions: 4 h incubation in plasma at 37 °C
# TRPV1 = TRPV1 (Mus musculus, UniProt Q704Y3); assay: Ca++ imaging in N2a cells over-expressing TRPV1 (capsaicin); conditions: 5 μM
# Chain of TRPV1 (Q704Y3 whole entry): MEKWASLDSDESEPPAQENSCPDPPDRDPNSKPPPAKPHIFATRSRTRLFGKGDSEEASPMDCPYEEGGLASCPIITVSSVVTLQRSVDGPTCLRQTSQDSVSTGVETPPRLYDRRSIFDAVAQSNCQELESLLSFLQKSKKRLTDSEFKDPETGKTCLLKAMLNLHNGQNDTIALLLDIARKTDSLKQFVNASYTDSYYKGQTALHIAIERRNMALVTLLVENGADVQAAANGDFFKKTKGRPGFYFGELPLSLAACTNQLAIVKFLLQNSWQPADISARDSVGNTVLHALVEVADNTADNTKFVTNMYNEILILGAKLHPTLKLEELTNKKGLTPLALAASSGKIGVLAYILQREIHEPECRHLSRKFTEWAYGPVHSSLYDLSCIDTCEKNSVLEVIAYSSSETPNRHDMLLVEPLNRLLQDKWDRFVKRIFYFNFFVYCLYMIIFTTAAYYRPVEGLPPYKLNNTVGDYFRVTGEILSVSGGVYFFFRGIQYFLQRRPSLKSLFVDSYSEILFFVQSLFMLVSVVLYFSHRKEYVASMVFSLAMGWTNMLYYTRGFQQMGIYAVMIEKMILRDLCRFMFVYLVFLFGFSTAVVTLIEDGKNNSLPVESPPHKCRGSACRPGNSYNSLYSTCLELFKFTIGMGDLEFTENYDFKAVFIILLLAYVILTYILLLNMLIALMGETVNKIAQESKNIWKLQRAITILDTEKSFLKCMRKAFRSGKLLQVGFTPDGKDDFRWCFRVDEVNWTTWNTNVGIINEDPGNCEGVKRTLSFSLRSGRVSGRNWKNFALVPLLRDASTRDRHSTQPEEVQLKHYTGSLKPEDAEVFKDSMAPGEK
# Method: (A) Specificity vs TRPV1-3. […] Mean±SEM is shown, ≥100 cells per condition. […] Plot generated from averaged peak ∆Ca^++ concentration of ≥75 cells per data-point.
# N2a cells were used for directed expression of TRP ion channels as described previously[13]. […] All other channels were native channels from mouse, eGFP was co-transfected. […] Ca^++ imaging was performed as described previously[13][14][34].
# TRPV4 [3] = target: T1, TRPV4; conditions: for inhibition of TRPV4-mediated Ca++ influx / average peak ∆Ca++ concentration: 5 μM inhibitor, GSK101 5 nM; for average peak ∆Ca++ concentration: ≈100 cells, vehicle control 1156; for increased potency over GSK205: from TRPV4 IC50 values
# Method: We assessed TRPV4-inhibitory potency of these synthetic compounds in a Ca^++ imaging assay in neuronal 2a (N2a) permanent tissue culture cells with directed expression of mammalian (rat) TRPV4. […] For first round assessment, all TRPV4-inhibitory compounds were used at 5 μM (Fig. 2A).
# (A) Ca^++ imaging screening of all compounds in N2A cells with directed expression of TRPV4 (rat). […] The number on each bar corresponds to average peak ∆Ca^++ concentrations in ≈100 cells. Inset: micrographs of pseudo-colored cells before and after activation with 5nM GSK101, in addition note the corresponding time course of the averaged Ca^++ signal (fura-2 Ca^++ imaging). […] Plot generated from averaged peak ∆Ca^++ concentration of ≥75 cells per data-point.
# TRPV4-eGFP from rat was used, previously found to respond to stimulation with GSK101 and hypotonicity in similar manner as native, non-fused TRPV4.
# TRPV4 [4] = target: T1, TRPV4; assay: Ca++ imaging in primary astrocytes, GSK101 stimulation; format: cell-based; conditions: GSK101 5 nM
# Method: (§1) Figure 4 Compound 16-8 inhibits TRPV4 in I˚ cells more potently than GSK205. […] Inset: Chondrocytes responding to activation with GSK101, fura-2 Ca^++ imaging; right-hand image taken at 5 sec after GSK101 application. […] (B) I˚ astrocytes (rat); dose-response comparison between 16-8 and GSK205 in response to 5 nM GSK101. Inset: Astrocytes responding to activation with GSK101; right-hand image taken at 5 sec after GSK101 application (mean ± SEM, n = 5 independent expts, n ≥ 200 cells/expt; *p < 0.05, t-test).
# Astrocyte cultures were conducted following established protocols. Astrocytes were prepared from Sprague Dawley rat embryos (E18). Briefly, the isolated cortices were minced, and then incubated with trypsin and DNase. Dissociated cells were suspended in Dulbeccco’s Modified Eagle’s Medium (DMEM) supplemented with 10% fetal calf serum and penicillin/streptomycin (100 U/ml and 100 μg/ml, respectively). Thereafter, cell suspensions were plated in 75 cm^2 tissue culture flasks (10 × 10^6 cells/flask) which were pre-coated with poly-L-lysine (10 μg/ml). The cells were maintained in a 10%CO2 incubator at 37 °C.
# [5] = test system: caerulein-evoked acute pancreatitis; assay: Caerulein-induced acute pancreatitis mouse model; format: in vivo; conditions: 10 mg/kg i.p., 30 min before caerulein
# Method: C57BL/6J male mice 8–10 weeks of age were subjected to acute pancreatitis by intraperitoneal injections of supramaximal doses of caerulein (50 μg/kg) every hour for a total of 6 h, as previously described in[61]. Control animals received 25% DMSO-saline solution by intraperitoneal injection every hour for 6 h. Compound 16-8 was dissolved in this vehicle (10 mg/kg) and injected i.p. 30 min prior to the first injection of caerulein. Animals were sacrificed 1 h after the last injection. Blood was collected and pancreatic tissue was promptly isolated, weighed for determination of pancreas wet weight/body weight ratio. Samples of tissues were fixed overnight in 10% neutral-buffered formalin, paraffin embedded and H&E-stained, or pancreatic tissue was quickly frozen and assessed for myeloperoxidase (MPO) activity. Serum amylase, MPO and histologic evaluation were conducted as described previously. Assessment of nocifensive behavior[8]: Mice were housed in individual cages and video-recorded during the entire experiment. Two mice at a time were observed. Linear movement was measured as one event when mice passed through the median plane of the cage. Analysis began immediately after the first caerulein/vehicle injection and continued until the end of the experiment. Results were expressed as the sum of the movement events spanning the 6 h time-period following the first injection.
# TRPV4 [6] = target: T2, TRPV4 (Sus scrofa, UniProt B3VP30); assay: Ca++ imaging in primary articular chondrocytes, GSK101 stimulation; format: cell-based, pig; conditions: GSK101 5 nM
# T2 construct: primary cells, which express functional and biologically-relevant TRPV4 without directed over-expression of the channel; endogenous in cells; host or cells: primary porcine articular chondrocytes (femoral condyles)
# T2 sequence (B3VP30 1-871): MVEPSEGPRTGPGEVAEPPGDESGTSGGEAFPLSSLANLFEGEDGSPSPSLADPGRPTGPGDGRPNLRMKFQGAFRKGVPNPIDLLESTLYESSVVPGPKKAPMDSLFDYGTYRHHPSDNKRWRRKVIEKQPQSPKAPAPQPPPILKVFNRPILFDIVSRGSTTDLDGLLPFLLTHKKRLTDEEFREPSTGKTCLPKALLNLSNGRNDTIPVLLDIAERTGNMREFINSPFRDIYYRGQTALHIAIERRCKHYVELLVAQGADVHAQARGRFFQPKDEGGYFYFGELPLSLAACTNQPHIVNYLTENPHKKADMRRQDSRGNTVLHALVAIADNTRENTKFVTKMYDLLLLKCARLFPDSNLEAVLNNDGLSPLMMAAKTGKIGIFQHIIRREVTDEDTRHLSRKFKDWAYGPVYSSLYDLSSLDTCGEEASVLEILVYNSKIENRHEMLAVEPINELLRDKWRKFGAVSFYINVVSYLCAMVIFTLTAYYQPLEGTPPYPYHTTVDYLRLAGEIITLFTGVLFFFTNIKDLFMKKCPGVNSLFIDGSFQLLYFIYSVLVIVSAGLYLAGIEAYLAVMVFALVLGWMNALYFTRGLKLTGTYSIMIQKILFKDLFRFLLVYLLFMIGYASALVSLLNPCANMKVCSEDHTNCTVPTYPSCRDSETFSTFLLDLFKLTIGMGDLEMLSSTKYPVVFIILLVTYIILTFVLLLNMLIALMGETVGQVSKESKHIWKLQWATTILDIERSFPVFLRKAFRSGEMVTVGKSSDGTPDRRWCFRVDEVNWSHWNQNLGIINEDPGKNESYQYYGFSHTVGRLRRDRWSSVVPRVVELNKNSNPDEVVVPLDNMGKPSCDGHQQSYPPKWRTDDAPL
# Method: as §1
# Primary porcine chondrocytes derived from femoral condyles of skeletally mature pigs were cultured and subjected to Ca^++ imaging as described previously.
SMILES,attenuation of TRPV4-mediated currents (TRPV4 [1]),stability in plasma [2],inhibition of TRPV1 (TRPV1),inhibition of TRPV4-mediated Ca++ influx (TRPV4 [3]),average peak ∆Ca++ concentration (TRPV4 [3]) [nM],increased potency over GSK205 (TRPV4 [3]),"potency vs GSK205, dose-response of peak ∆Ca++ (TRPV4 [4])",histopathological score for pancreas inflammation [5],myelo-peroxidase (MPO) [5],"pain behavior (nocifensive behavior, 6 h test period) [5]",pancreatic edema [5],"potency vs GSK205, dose-response of peak ∆Ca++ (TRPV4 [6])",IC50 (TRPV4 [3]) [nM]
CCN(CCc1ccc(Nc2nc(-c3ccccc3)cs2)cc1)Cc1ccccc1 [16-19],significantly increased potency,stable; also recorded: no loss of detectable compound,did not inhibit,virtually eliminated Ca^++ influx,8,~8 fold,,,,,,,
CN(CCc1ccc(Nc2nc(-c3ccccc3)cs2)cc1)Cc1ccccc1 [16-8],significantly increased potency,,did not inhibit,virtually eliminated Ca^++ influx,6,approximately 10 fold,significantly increased potency,significantly reduced; also recorded: significant reduction,significantly reduced,virtually eliminated; also recorded: significantly reduced,virtually eliminated,significantly more potent than GSK205,450 ± 50
